Patent publication US11395847B2, “Acylated GLP-1/GLP-2 dual agonists” (Zealand Pharma A/S, priority 2016, dated 2022)
Where a SMILES comes first, the peptide text is derived from it.

Target: T1, human GLP-2 receptor (Homo sapiens, UniProt O95838, D470N)
T1 construct: expressed in transfected cells
T1 sequence (O95838 1-553 D470N): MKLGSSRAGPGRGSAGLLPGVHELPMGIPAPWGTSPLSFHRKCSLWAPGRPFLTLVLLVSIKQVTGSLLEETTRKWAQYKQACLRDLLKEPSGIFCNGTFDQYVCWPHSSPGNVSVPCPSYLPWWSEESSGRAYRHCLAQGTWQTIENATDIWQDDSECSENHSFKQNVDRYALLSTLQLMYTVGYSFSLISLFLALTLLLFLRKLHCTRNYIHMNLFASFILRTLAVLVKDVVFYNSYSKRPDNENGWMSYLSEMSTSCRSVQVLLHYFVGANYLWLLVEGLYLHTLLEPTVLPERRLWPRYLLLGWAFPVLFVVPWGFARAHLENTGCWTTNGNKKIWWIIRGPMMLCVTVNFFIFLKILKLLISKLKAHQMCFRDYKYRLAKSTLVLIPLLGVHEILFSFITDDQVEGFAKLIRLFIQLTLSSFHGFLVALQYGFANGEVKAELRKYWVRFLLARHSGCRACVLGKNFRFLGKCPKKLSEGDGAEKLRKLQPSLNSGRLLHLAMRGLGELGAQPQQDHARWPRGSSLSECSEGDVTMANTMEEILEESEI
Experiment: GLP-2 receptor potency assay (cAMP ALPHASCREEN, HEK293 cells stably expressing GLP-2 R)
Assay type: cell-based
Conditions: cAMP response, HEK293 cells expressing human GLP-2 R; read-out: EC50 GLP-2
Description: One useful in vitro assay for measuring GLP-1 and GLP-2 receptor activity is quantitation of cAMP, i.e. 3′-5′-cyclic adenosine monophosphate, which is a second messenger essential in many biological processes, and one of the most ubiquitous mechanisms for regulating cellular functions.
For subcloning into a mammalian expression vector, primers for subcloning were obtained from DNA-Technology, Risskov, Denmark. The 5′ and 3′ primers used for the PCR reaction include terminal restriction sites for cloning and the context of the 5′ primer is modified to a Kozak consensus without changing the sequence of the product encoded by the ORF. […] The generated PCR product was purified using GFX PCR and Gel band purification kit, digested with restriction enzymes and cloned into the mammalian expression vector using Rapid DNA Ligation Kit. Ligation reaction was transformed to XL10 Gold Ultracompetent cells and colonies were picked for DNA production using ENDOFREE® Plasmid maxi kit. Subsequent sequence analysis was conducted by MWG Eurofins, Germany.
HEK293 cells were transfected using the LIPOFECTAMINE® PLUS transfection method. The day before transfection, HEK293 cells were seeded in two T75 flasks at a density of 2×10^6 cells/T75 flask in cell culturing medium without antibiotics. On the day of transfection, cells were washed with 1× DPBS and medium was replaced with OPTI-MEM© to a volume of 5 mL/T75 flask before addition of LIPOFECTAMINE®-plasmid complexes were added gently and drop wise to the cells in T75 flasks and replaced with growth medium after 3 hours and again to growth medium supplemented with 500 μg/mL G418 after 24 hours. Following 4 weeks in G418 selection, clones were picked and tested in a functional GLP-2 receptor potency assay as described below.
The cAMP ALPHASCREEN® assay from Perkin Elmer was used to quantitate the cAMP response to activation of the GLP1 and GLP2 receptor, respectively. […] Data from test compounds eliciting an increase in the intracellular level of cAMP were normalized relative to the positive and negative control (vehicle) to calculate the EC50 and maximal response from the concentration response curve.

EC50	Compound
0.33 nM	CC[C@H](C)[C@H](NC(=O)[C@H](Cc1ccccc1)NC(=O)[C@H](CC(=O)O)NC(=O)[C@H](CCCNC(=N)N)NC(=O)[C@H](C)NC(=O)[C@H](C)NC(=O)[C@H](CCC(=O)O)NC(=O)[C@H](CCCCNC(=O)CC[C@H](NC(=O)CCCCCCCCCCCCCCCCC(=O)O)C(=O)O)NC(=O)[C@H](CC(=O)O)NC(=O)[C@H](CC(C)C)NC(=O)[C@@H](NC(=O)[C@@H](NC(=O)[C@H](C)NC(=O)[C@H](CC(C)C)NC(=O)[C@H](CCC(=O)O)NC(=O)[C@H](CO)NC(=O)[C@@H](NC(=O)[C@H](Cc1ccccc1)NC(=O)[C@@H](NC(=O)CNC(=O)[C@H](CCC(=O)O)NC(=O)C(C)(C)NC(=O)[C@@H](N)Cc1c[nH]cn1)[C@@H](C)O)[C@@H](C)O)[C@@H](C)O)[C@@H](C)CC)C(=O)N[C@@H](C)C(=O)N[C@@H](Cc1c[nH]c2ccccc12)C(=O)N[C@@H](CC(C)C)C(=O)N[C@H](C(=O)N[C@@H](CCC(=O)O)C(=O)N[C@@H](Cc1c[nH]cn1)C(=O)N[C@@H](CCCCN)C(=O)N[C@H](C(=O)N[C@H](C(=O)N[C@@H](CC(=O)O)C(=O)O)[C@@H](C)O)[C@@H](C)CC)[C@@H](C)CC [Compound 3] (HELM PEPTIDE1{H.[Aib].E.G.T.F.T.S.E.L.A.T.I.L.D.K.E.A.A.R.D.F.I.A.W.L.I.E.H.K.I.T.D}|PEPTIDE2{[O=C(O)CCCCCCCCCCCCCCCCC(=O)[*:2]].[gGlu]}$PEPTIDE1,PEPTIDE2,16:R3-2:R2$$$V2.0)
0.11 nM	CC[C@H](C)[C@H](NC(=O)[C@H](Cc1ccccc1)NC(=O)[C@H](CC(=O)O)NC(=O)[C@H](CCCNC(=N)N)NC(=O)[C@H](C)NC(=O)[C@H](C)NC(=O)[C@H](CC(C)C)NC(=O)[C@H](CCCCNC(=O)CC[C@H](NC(=O)CCCCCCCCCCCCCCCCC(=O)O)C(=O)O)NC(=O)[C@H](CC(=O)O)NC(=O)[C@H](CC(C)C)NC(=O)[C@@H](NC(=O)[C@@H](NC(=O)[C@H](C)NC(=O)[C@H](CC(C)C)NC(=O)[C@H](CCC(=O)O)NC(=O)[C@H](CO)NC(=O)[C@@H](NC(=O)[C@H](Cc1ccccc1)NC(=O)[C@@H](NC(=O)CNC(=O)[C@H](CCC(=O)O)NC(=O)C(C)(C)NC(=O)[C@@H](N)Cc1c[nH]cn1)[C@@H](C)O)[C@@H](C)O)[C@@H](C)O)[C@@H](C)CC)C(=O)N[C@@H](C)C(=O)N[C@@H](Cc1c[nH]c2ccccc12)C(=O)N[C@@H](CC(C)C)C(=O)N[C@H](C(=O)N[C@@H](CCC(=O)O)C(=O)N[C@@H](Cc1c[nH]cn1)C(=O)N[C@@H](CCCCN)C(=O)N[C@H](C(=O)N[C@H](C(=O)N[C@@H](CC(=O)O)C(=O)O)[C@@H](C)O)[C@@H](C)CC)[C@@H](C)CC [Compound 12] (HELM PEPTIDE1{H.[Aib].E.G.T.F.T.S.E.L.A.T.I.L.D.K.L.A.A.R.D.F.I.A.W.L.I.E.H.K.I.T.D}|PEPTIDE2{[O=C(O)CCCCCCCCCCCCCCCCC(=O)[*:2]].[gGlu]}$PEPTIDE1,PEPTIDE2,16:R3-2:R2$$$V2.0)
